Measured values: US5705487A, “Antithrombotic agents” (priority 1995, dated 1998)
Counter-ions that a name gives are not always drawn.

Columns and labels:
Format in all cases: biochemical
Human Thrombin = Human Thrombin (Homo sapiens, UniProt P00734); experiment: Inhibition of the amidase activity of thrombin (Kass); details: chromogenic substrate N-benzoyl-Phe-Val-Arg-p-nitroanilide; mean over range of concentrations
factor Xa = target: T1, factor Xa (Homo sapiens, UniProt P00742); experiment: Kass, factor Xa chromogenic substrate assay; details: substrate N-Benzoyl-Ile-Glu-Gly-Arg-p-nitroanilide
T1 construct: Human factors X, Xa, IXa, XIa, and XIIa are purchased; purchased Enzyme Research Laboratories, South Bend, Ind

Bovine trypsin = target: T2, Bovine trypsin (Bos taurus, UniProt P00760); experiment: Kass, trypsin chromogenic substrate assay; details: substrate N-Benzoyl-Phe-Val-Arg-p-nitroanilide
T2 construct: Bovine trypsin is purchased from Worthington Biochemicals; purchased Worthington Biochemicals, Freehold, N.J
T2 sequence (P00760 24-246): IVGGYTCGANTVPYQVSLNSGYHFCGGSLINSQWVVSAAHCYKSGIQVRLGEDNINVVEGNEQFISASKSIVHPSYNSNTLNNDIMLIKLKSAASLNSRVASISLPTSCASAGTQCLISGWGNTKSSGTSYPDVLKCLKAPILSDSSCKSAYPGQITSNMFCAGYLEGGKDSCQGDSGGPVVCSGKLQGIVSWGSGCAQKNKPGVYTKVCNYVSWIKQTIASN
Experimental: (§2) By substantially following the procedures described above for human thrombin, and using other human blood coagulation system serine proteases and proteases of the fibrinolytic system with the appropriate chromogenic substrates, identified below, selectivity of the compounds of the present invention with respect to the coagulation factor serine proteases and with respect to the fibrinolytic system serine proteases are evaluated as well as their substantial lack of interference with serine proteases of the fibrinolytic system.
Chromogenic substrates: N-Benzoyl-Ile-Glu-Gly-Arg-p-nitroanilide (for factor Xa); N-Cbz-D-Arg-Gly-Arg-p-nitroanilide (for factor IXa assay as the factor Xa substrate); Pyroglutamyl-Pro-Arg-p-nitroanilide (for Factor XIa and for aPC); H-D-Pro-Phe-Arg-p-nitroanilide (for factor XIIa); and Pyroglutamyl-Gly-Arg-p-nitroanilide (for urokinase); are purchased from KabiVirum, Stockholm, Sweden, or from Midwest Biotech, Fishers, Ind. Bovine trypsin is purchased from Worthington Biochemicals, Freehold, N.J., and human plasma kallikrein from Kabi Vitrum, Stockholm, Sweden. […] N-Benzoyl-Phe-Val-Arg-p-nitroanilide, the substrate for human thrombin and for trypsin, is synthesized according to procedures described above for the compounds of the present invention, using known methods of peptide coupling from commercially available reactants or purchased from Midwest Biotech, Fishers, Ind.

Human plasmin = target: T3, Human plasmin (Homo sapiens, UniProt P00747); experiment: Kass, plasmin chromogenic substrate assay; details: substrate H-D-Val-Leu-Lys-p-nitroanilide
T3 construct: Human plasmin is purchased from Boehringer Mannheim; purchased Boehringer Mannheim, Indianapolis, Ind
Experimental: as §2
Human plasmin is purchased from Boehringer Mannheim, Indianapolis, Ind.; nt-PA is purchased as single chain activity reference from American Diagnostica, Greenwich, Conn.; modified-t-PA6 (mt-PA6) is prepared at Eli Lilly and Company by procedure known in the art (See, Burck, et al., J. Biol. Chem., 265, 5120-5177 (1990). Plasmin chromogenic substrate H-D-Val-Leu-Lys-p-nitroanilide and tissue plasminogen activator (t-PA) substrate H-D-Ile-Pro-Arg-p-nitroanilide are purchased from Kabi Vitrum, Stockholm, Sweden.

t-PA = target: T4, t-PA (Homo sapiens, UniProt P00750); experiment: Kass, t-PA chromogenic substrate assay; details: substrate H-D-Ile-Pro-Arg-p-nitroanilide
T4 construct: purchased American Diagnostica, Greenwich, Conn

Human Plasma [1] = experiment: Human plasma anticoagulation, thrombin time (TT); details: concentration required to double the clotting time
Procedure, shortened: (§1)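 Values are concentrations estimated by linear extrapolation to double the clotting time in human plasma containing test compound across a wide range. Thrombin time was triggered with bovine thrombin at 10 NIH units/mL plus saline, and prothrombin time with Thromboplastin-C plus saline. For APTT, plasma sat with Actin reagent for 120 seconds before 0.02M CaCl2.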

Human Plasma [2] = experiment: Human plasma anticoagulation, activated partial thromboplastin time (APTT); details: concentration required to double the clotting time
Procedure, shortened: as §1

Human Plasma [3] = experiment: Human plasma anticoagulation, prothrombin time (PT); details: concentration required to double the clotting time
Procedure, shortened: as §1

T1 sequence (P00742 235-488 limits assumed): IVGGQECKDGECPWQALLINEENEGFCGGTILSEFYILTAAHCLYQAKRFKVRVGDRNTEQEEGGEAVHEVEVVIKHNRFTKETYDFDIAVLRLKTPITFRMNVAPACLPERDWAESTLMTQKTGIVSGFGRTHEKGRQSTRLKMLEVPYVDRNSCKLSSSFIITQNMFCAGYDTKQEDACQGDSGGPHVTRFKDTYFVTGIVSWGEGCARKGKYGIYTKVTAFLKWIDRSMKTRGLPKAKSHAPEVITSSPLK
T1 sequence (P00742 41-179 partner limits assumed): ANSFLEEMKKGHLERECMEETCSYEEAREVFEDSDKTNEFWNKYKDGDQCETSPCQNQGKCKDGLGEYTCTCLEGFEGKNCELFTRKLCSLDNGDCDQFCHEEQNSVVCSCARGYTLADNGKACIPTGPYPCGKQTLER
T3 sequence (P00747 581-810 limits assumed): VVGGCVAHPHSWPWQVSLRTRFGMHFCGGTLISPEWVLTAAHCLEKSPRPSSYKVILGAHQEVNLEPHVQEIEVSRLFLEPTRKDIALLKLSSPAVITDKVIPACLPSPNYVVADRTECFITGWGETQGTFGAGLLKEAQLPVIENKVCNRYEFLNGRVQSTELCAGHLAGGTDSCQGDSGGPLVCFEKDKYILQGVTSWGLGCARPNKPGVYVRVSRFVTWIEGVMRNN
T3 sequence (P00747 97-580 partner limits assumed): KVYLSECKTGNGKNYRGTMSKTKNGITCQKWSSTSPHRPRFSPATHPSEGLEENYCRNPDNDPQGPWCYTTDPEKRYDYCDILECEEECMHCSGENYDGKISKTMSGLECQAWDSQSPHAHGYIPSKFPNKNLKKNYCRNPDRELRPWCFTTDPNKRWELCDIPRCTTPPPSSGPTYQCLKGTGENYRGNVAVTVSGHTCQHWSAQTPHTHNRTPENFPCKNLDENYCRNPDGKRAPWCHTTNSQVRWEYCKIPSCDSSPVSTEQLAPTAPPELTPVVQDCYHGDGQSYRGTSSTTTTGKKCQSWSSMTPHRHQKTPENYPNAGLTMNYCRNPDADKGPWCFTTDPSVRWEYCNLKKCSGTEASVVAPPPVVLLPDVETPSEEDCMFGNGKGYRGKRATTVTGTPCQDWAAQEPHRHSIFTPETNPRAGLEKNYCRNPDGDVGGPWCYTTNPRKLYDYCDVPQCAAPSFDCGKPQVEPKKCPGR
T4 sequence (P00750 36-562): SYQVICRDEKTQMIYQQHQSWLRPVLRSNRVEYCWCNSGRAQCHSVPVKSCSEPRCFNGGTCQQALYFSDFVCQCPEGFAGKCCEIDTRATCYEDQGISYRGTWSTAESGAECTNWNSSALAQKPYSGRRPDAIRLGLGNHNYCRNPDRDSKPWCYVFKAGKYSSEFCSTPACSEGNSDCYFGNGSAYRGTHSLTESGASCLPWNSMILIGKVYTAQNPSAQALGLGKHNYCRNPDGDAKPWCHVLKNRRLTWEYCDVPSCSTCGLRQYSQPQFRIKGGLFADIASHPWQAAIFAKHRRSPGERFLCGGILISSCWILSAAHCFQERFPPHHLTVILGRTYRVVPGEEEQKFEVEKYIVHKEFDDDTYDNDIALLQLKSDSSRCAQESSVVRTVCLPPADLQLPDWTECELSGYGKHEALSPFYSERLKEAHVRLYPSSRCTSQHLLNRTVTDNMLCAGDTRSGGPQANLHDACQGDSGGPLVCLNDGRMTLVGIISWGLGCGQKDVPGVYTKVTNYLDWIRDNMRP

| Molecule | Kass × 10^6 (L/mole) Human Thrombin (Human Thrombin) | Kass × 10^6 (L/mole) Xa (factor Xa) | Kass × 10^6 (L/mole) Trypsin (Bovine trypsin) | Kass × 10^6 (L/mole) Plasmin (Human plasmin) | Kass × 10^6 (L/mole) t-PA (t-PA) | Human Plasma Anticoagulation 2x Clotting time TT (Human Plasma [1]) | Human Plasma Anticoagulation 2x Clotting time APTT (Human Plasma [2]) | Human Plasma Anticoagulation 2x Clotting time PT (Human Plasma [3]) |
| --- | --- | --- | --- | --- | --- | --- | --- | --- |
| N=C(N)N1CCC(CCNC(=O)[C@@H]2CCCN2C(=O)[C@@H](CC2CCCCC2)NCC(=O)O)CC1 [Example 57, HO2 CCH2 -D-Cha-Pro-4-NHCH2 CH2 -1-amidinopiperidine.HCl] | 39 × 10^6 L/mole | 0.01 × 10^6 L/mole | 0.24 × 10^6 L/mole | 0.01 × 10^6 L/mole | < 0.001 × 10^6 L/mole | 14 ng/mL | 360 ng/mL | 340 ng/mL |
| Cl.O=C(O)CNC(CC1CCCCC1)C(=O)N1CCCC1C(=O)NCCC1CCNCC1 [Example 54, HO2 CCH2 -D-Cha-Pro-4-NHCH2 CH2 -piperidine.HCl] | 2.8 × 10^6 L/mole | < 0.001 × 10^6 L/mole | 0.52 × 10^6 L/mole | 0.01 × 10^6 L/mole | < 0.001 × 10^6 L/mole | 140 ng/mL | 3,300 ng/mL | 2,200 ng/mL |
| CCS(=O)(=O)N[C@H](Cc1ccccc1)C(=O)N1CCC[C@H]1C(=O)NCCCc1ccc(C(=N)N)cc1 [Example 30, EtSO2 -D-Phe-Pro-p-NHCH2 CH2 CH2 -C6 H4 C(=NH)NH2.HCl] | 0.55 × 10^6 L/mole | 0.02 × 10^6 L/mole | 0.03 × 10^6 L/mole | < 0.001 × 10^6 L/mole | < 0.001 × 10^6 L/mole | 1,000 ng/mL | 14,000 ng/mL | 14,400 ng/mL |
| CCS(=O)(=O)N[C@H](Cc1ccccc1)C(=O)N1CCC[C@H]1C(=O)NCCc1cccc(C(=N)N)c1.Cl [Example 27, EtSO2 -D-Phe-Pro-m-NHCH2 CH2 -C6 H4 C(=NH)NH2.HCl] | 0.29 × 10^6 L/mole | 0.02 × 10^6 L/mole | 0.02 × 10^6 L/mole | < 0.001 × 10^6 L/mole | 0.02 × 10^6 L/mole | 1,940 ng/mL | 27,800 ng/mL | 27,000 ng/mL |
| Cl.N=C(N)c1ccc(CCCNC(=O)C2CCCN2C(=O)C2NCCC3CCCCC32)cc1 (stereo not drawn) [Example 32, 1-Piq-Pro-p-NHCH2 CH2 CH2 -C6 H4 C(=NH)NH2.HCl] | 0.13 × 10^6 L/mole | 0.03 × 10^6 L/mole | 0.04 × 10^6 L/mole | < 0.001 × 10^6 L/mole | 0.01 × 10^6 L/mole | 3,100 ng/mL | 28,500 ng/mL | 47,800 ng/mL |
| Cl.N=C(N)c1cccc(CNC(=O)[C@@H]2CCCN2C(=O)[C@H](N)Cc2ccccc2)c1 [Example 16, D-Phe-Pro-m-NHCH2 C6 H4 C(NH)NH2.0.75HCl] | 0.97 × 10^6 L/mole | 0.0051 × 10^6 L/mole | 0.02 × 10^6 L/mole | 0.0017 × 10^6 L/mole | 0.0012 × 10^6 L/mole | 650 ng/mL | 8,600 ng/mL | 8,500 ng/mL |
| N=C(N)c1ccc(CNC(=O)[C@@H]2C[C@@H]3CCCC[C@@H]3N2C(=O)[C@H]2C[C@H]3CCCC[C@H]3CN2)cc1 (relative stereo) [Example 43, D-3-Piq-cis-Ohi-p-NHCH2 C6 H4 C(NH)NH2.2HCl] | 1.4 × 10^6 L/mole | 0.05 × 10^6 L/mole | 100. × 10^6 L/mole | 0.30 × 10^6 L/mole | 0.01 × 10^6 L/mole | 280 ng/mL | 1,100 ng/mL | 930 ng/mL |
| EtSO2 -D-Phe-Pro-p-NHCH2 CH2 C6 H4 CNH(NH)NH2.HCl [Example 35] | 0.09 × 10^6 L/mole | < 0.001 × 10^6 L/mole | 0.04 × 10^6 L/mole | < 0.001 × 10^6 L/mole | < 0.001 × 10^6 L/mole | 4,500 ng/mL | 50,400 ng/mL | 78,400 ng/mL |
| N=C(N)c1ccc(CCNC(=O)[C@@H]2CCCN2C(=O)[C@@H]2NCC[C@@H]3CCCC[C@@H]32)cc1 [Example 28, 1-Piq-Pro-p-NHCH2 CH2 -C6 H4 C(=NH)NH2.2HCl] | 0.95 × 10^6 L/mole | 0.01 × 10^6 L/mole | 0.11 × 10^6 L/mole | < 0.001 × 10^6 L/mole | < 0.001 × 10^6 L/mole | 520 ng/mL | 8,100 ng/mL | 8,300 ng/mL |
| CCS(=O)(=O)N[C@H](Cc1ccccc1)C(=O)N1CCC[C@H]1C(=O)NCc1ccc(NC(=N)N)cc1 [Example 34, EtSO2 -D-Phe-Pro-p-NHCH2 C6 H4 NHC(NH)NH2.HCl] | 0.65 × 10^6 L/mole | < 0.001 × 10^6 L/mole | 0.49 × 10^6 L/mole | 0.01 × 10^6 L/mole | 0.01 × 10^6 L/mole | 530 ng/mL | 4,900 ng/mL | 5,500 ng/mL |
